Test system: HeLa 21-4 cells
Assay: Procedure 1 on HeLa cells in suspension with subsequent isolation of chromatin, fluorescence spectrophotometer
Assay type: cell-based
Details: H2O2 4 mM, 30 minutes
Procedure: In this Example, HeLa 21-4 cells (obtained from P.R. Cook, University of Oxford) were seeded on 6-well plates and cultured for 48 hours in DMEM supplemented with 10% FBS until the culture reached 100% confluency (number of cells: 1.2×10^6 per 1 well). Next, cells were treated with the DNA damaging agent H2O2 which was added directly to the growth medium (final concentration: 4 mM). The cells were incubated at 37° C. for 30 minutes in the standard cell culture incubator with CO2 level control. The control, untreated cells and the damaged cells (H2O2) were then harvested using 0.5 ml trypsin and transferred to 1.5 ml eppendorf tubes. Afterwards, trypsin was inactivated by adding 0.5 ml DMEM supplemented with 10% FBS. Subsequently, cells were spun down in the table top centrifuge (Eppendorf centrifuge, 5417 C, rotor: F45-30-11) (1700 rpm, 5 minutes, room temperature). The cell pellet was resuspended in PBS and again spun down (this washing step was repeated twice). When the supernatant PBS was discarded, cells were resuspended in the remaining droplet of PBS. Subsequently, ice-cold 70% Et(OH) was added dropwise, and cells were incubated in Et(OH) for 30 minutes in −20° C. Then, the cells were treated according to Procedure 1, wherein steps 1, 3, 4, 9 were omitted, and every washing step and every incubation were followed by centrifugation. BrdU was linked to free ends of DNA using TdT enzyme using APO-BRDU kit (Phoenix Flow Systems, AU: 1001) according to the supplier's instructions. […] The fluorescence signal was generated using Duolink® In Situ Detection Reagents Green (Sigma, DUO92014). […]
The level of fluorescence intensity of the cell extract obtained from untreated control cells and the H2O2 damaged cells was measured using a fluorescence spectrophotometer (Hitachi F-7000 supplied with Xe lamp). The fluorescence intensity was measured for 30 s (excitation 480 nm, emission 520 nm).

Q: Which results are given for `OO` [H2O2]?
A: fluorescence intensity per 1 ng of DNA (cell extract): 3.2±0.3×10^−4 a.u.; flurescence signal per 1 ng of DNA (cell extract): 3.2 ± 0.3 × 10^−4 a.u./ng; fluorescence signal (extract volume 40 μl, excitation 480 nm, emission 520 nm): 0.046 ± 0.005 a.u.

Source: patent publication US20200255884A1, “METHOD OF DETECTION OF DNA END(S) AND ITS USE” (INTODNA SP. Z O.O., priority 2017, published 2020)
